Where “and” joins values, the source holds several entries; their conditions need not be identical. Equal entries are not always repeated. Records with an inconclusive call do not appear. Calls of active or inactive are those of the source.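 How the source made its calls: active means loss of yeast growth signal with half-maximal concentration no more than ten times the top tested dose, in every run; inconclusive means runs disagree, or a weak flat curve or poor fit; inactive means inactive in every run.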
Assays:
[1] = reduced ATP viability signal of PfHsp90 yeast – S. cerevisiae, BacTiter-Glo luminescence, dry powder samples, antimalarial PfHsp90 inhibitor project, dose response (AID 588396); conditions: S. cerevisiae expressing PfHsp90, BacTiter-Glo ATP luminescence, 48 h; at 26 µM (top of the series)
[2] = test system: S. cerevisiae expressing PfHsp90, BacTiter-Glo ATP luminescence, 48 h; assay: as above

Compound | activity change, negative = inhibition [1] | AC50 [2] [µM]
Nc1c2ccccc2nc2ccccc12 (tested in a mixture with another compound) | 51.8% (inactive) and 38.4% (inactive) | 
O=S(=O)(/C=C/c1ccccc1)NC1CCCCCCC1 |  | 6.52
Cc1ccc(O)c(NC(=S)NC(=O)c2ccc(-c3ccc(Cl)cc3)o2)c1 |  | 6.37
O=C1C(Cl)=C(NCCc2ccccc2)C(=O)c2ccccc21 | 1.42% (inactive) | 
COc1ccc2c(c1)C=C(C(=O)NCc1ccc(Cl)cc1)CO2 |  | 8.85
COc1ccc2c(c1)[nH]c1c(C)nccc12 | 217% (inactive) | 
Cc1ccc(N2C(=O)C3C4C=CC(CNC(=S)Nc5cccc(Cl)c5)(O4)C3C2=O)cc1 (stereo not given) | -41.4% (inactive) | 
CCN(CC)c1ccc(/C=C2/SC(=O)N(C(C)C)C2=O)o1 |  | 12.2
O=S(=O)(NC1CC2CCC1C2)c1ccc(Cl)cc1 (stereo not given) |  | 3.25
O=S(=O)(NC1CCCCCC1)c1ccc(Br)s1 |  | 1.34
CCOc1cc(S(=O)(=O)NC2CCCCCC2)ccc1F |  | 7.34
Cc1ccc(N2C(=O)C3C4C=CC(CNC(=S)Nc5ccc(F)cc5)(O4)C3C2=O)cc1 (stereo not given) |  | 26.3
O=C(CSCC(=O)N1CCCCC1)Nc1nc(-c2ccc(Cl)s2)cs1 |  | 14.5
O=C1C(Cl)=C(Oc2ccccc2)C(=O)c2ccccc21 |  | 0.974
O=C(O)/C=C/c1cn(-c2ccccc2)nc1-c1cc2ccccc2o1 |  | 9.7

Reference: PubChem BioAssay AID588396 (Broad Institute, 2011)
